Experimental data from BindingDB's records for doi:10.1021/jm00067a004 (Glaxo Group Research, 1993).
Values joined by “and” are separate entries in the source; they are usually repeats but may differ in a detail not shown here. Identical values can stand only once.

experiment: In vitro agonist activity at kappa opioid receptor in rabbit vas deferens.

SMILES | IC50
COC(=O)N1CCN(C(=O)Cc2ccc(Cl)c(Cl)c2)C(CN2CCCC2)C1 (centres undefined) [GR-89696] | 0.041 nM and 0.018 nM

experiment: as above; remark: another data set of the same source

SMILES | IC50 [nM]
CC(=O)N1CCN(C(=O)Cc2ccc(Cl)c(Cl)c2)C(CN2CCCC2)C1 (centres undefined) [1-(4-Acetyl-2-pyrrolidin-1-ylmethyl-piperazin-1-yl)-2-(3,4-dichloro-phenyl)-ethanone] | 10
O=C(c1ccccc1)N1CCN(C(=O)Cc2ccc(Cl)c(Cl)c2)C(CN2CCCC2)C1 (centres undefined) [1-(4-Benzoyl-2-pyrrolidin-1-ylmethyl-piperazin-1-yl)-2-(3,4-dichloro-phenyl)-ethanone] | > 10000
CCCC(=O)N1CCN(C(=O)Cc2ccc(Cl)c(Cl)c2)C(CN2CCCC2)C1 (centres undefined) [1-{4-[2-(3,4-Dichloro-phenyl)-acetyl]-3-pyrrolidin-1-ylmethyl-piperazin-1-yl}-butan-1-one] | 60
CCC(=O)N1CCN(C(=O)Cc2ccc(Cl)c(Cl)c2)C(CN2CCCC2)C1 (centres undefined) [1-{4-[2-(3,4-Dichloro-phenyl)-acetyl]-3-pyrrolidin-1-ylmethyl-piperazin-1-yl}-propan-1-one] | 6.9
C=CC(=O)N1CCN(C(=O)Cc2ccc(Cl)c(Cl)c2)C(CN2CCCC2)C1 (centres undefined) [1-{4-[2-(3,4-Dichloro-phenyl)-acetyl]-3-pyrrolidin-1-ylmethyl-piperazin-1-yl}-propenone] | 0.42
O=C(Cc1ccccc1)N1CCN(C(=O)Cc2ccc(Cl)c(Cl)c2)C(CN2CCCC2)C1 (centres undefined) [2-(3,4-Dichloro-phenyl)-1-(4-phenylacetyl-2-pyrrolidin-1-ylmethyl-piperazin-1-yl)-ethanone] | > 10000
COCC(=O)N1CCN(C(=O)Cc2ccc(Cl)c(Cl)c2)C(CN2CCCC2)C1 (centres undefined) [2-(3,4-Dichloro-phenyl)-1-[4-(2-methoxy-acetyl)-2-pyrrolidin-1-ylmethyl-piperazin-1-yl]-ethanone] | 2900
COC(=O)N1CCN(C(=O)Cc2ccc(Cl)c(Cl)c2)C(CN2CC=CCC2)C1 (centres undefined) [4-[2-(3,4-Dichloro-phenyl)-acetyl]-3-(3,6-dihydro-2H-pyridin-1-ylmethyl)-piperazine-1-carboxylic acid methyl ester] | 0.04
COC(=O)N1CCN(C(=O)Cc2ccc(Cl)c(Cl)c2)C(CN2CCC(O)C2)C1 (centres undefined) [4-[2-(3,4-Dichloro-phenyl)-acetyl]-3-(3-hydroxy-pyrrolidin-1-ylmethyl)-piperazine-1-carboxylic acid methyl ester] | 0.34
COC(=O)/C=C1/CCN(CC2CN(C(=O)OC)CCN2C(=O)Cc2ccc(Cl)c(Cl)c2)C1 (centres undefined) [4-[2-(3,4-Dichloro-phenyl)-acetyl]-3-(3-methoxycarbonylmethylene-pyrrolidin-1-ylmethyl)-piperazine-1-carboxylic acid methyl ester] | 0.28
COC(=O)/C=C1\CCN(CC2CN(C(=O)OC)CCN2C(=O)Cc2ccc(Cl)c(Cl)c2)C1 (centres undefined) [4-[2-(3,4-Dichloro-phenyl)-acetyl]-3-(3-methoxycarbonylmethylene-pyrrolidin-1-ylmethyl)-piperazine-1-carboxylic acid methyl ester] | 4
COC(=O)N1CCN(C(=O)Cc2ccc(Cl)c(Cl)c2)C(CN2CCC(=O)C2)C1 (centres undefined) [4-[2-(3,4-Dichloro-phenyl)-acetyl]-3-(3-oxo-pyrrolidin-1-ylmethyl)-piperazine-1-carboxylic acid methyl ester] | 0.34
COC(=O)N1CCN(C(=O)Cc2ccc(Cl)c(Cl)c2)C(CN(C)C)C1 (centres undefined) [4-[2-(3,4-Dichloro-phenyl)-acetyl]-3-dimethylaminomethyl-piperazine-1-carboxylic acid methyl ester] | 1.2
O=CN1CCN(C(=O)Cc2ccc(Cl)c(Cl)c2)C(CN2CCCC2)C1 (centres undefined) [4-[2-(3,4-Dichloro-phenyl)-acetyl]-3-pyrrolidin-1-ylmethyl-piperazine-1-carbaldehyde] | 15
O=C(OCc1ccccc1)N1CCN(C(=O)Cc2ccc(Cl)c(Cl)c2)C(CN2CCCC2)C1 (centres undefined) [4-[2-(3,4-Dichloro-phenyl)-acetyl]-3-pyrrolidin-1-ylmethyl-piperazine-1-carboxylic acid benzyl ester] | 450
CCOC(=O)N1CCN(C(=O)Cc2ccc(Cl)c(Cl)c2)C(CN2CCCC2)C1 (centres undefined) [4-[2-(3,4-Dichloro-phenyl)-acetyl]-3-pyrrolidin-1-ylmethyl-piperazine-1-carboxylic acid ethyl ester] | 3.5
O=C(Oc1ccccc1)N1CCN(C(=O)Cc2ccc(Cl)c(Cl)c2)C(CN2CCCC2)C1 (centres undefined) [4-[2-(3,4-Dichloro-phenyl)-acetyl]-3-pyrrolidin-1-ylmethyl-piperazine-1-carboxylic acid phenyl ester] | > 10000
CCCOC(=O)N1CCN(C(=O)Cc2ccc(Cl)c(Cl)c2)C(CN2CCCC2)C1 (centres undefined) [4-[2-(3,4-Dichloro-phenyl)-acetyl]-3-pyrrolidin-1-ylmethyl-piperazine-1-carboxylic acid propyl ester] | 300
